For 16 molecules, TGI results are on record in PubChem BioAssay (NCI).

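48-hour exposure; five concentrations; linearly interpolated endpoints. At the TGI there is no net growth.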

Test systems include A549 NSCLC; DU-145 prostate; HS 578T breast; K-562 leukemia; MCF7 breast; NCI-H226 lung; PC-3 prostate; SF-295 CNS; SK-MEL-2 melanoma; SN12C renal; SNB-75 CNS; TK-10 renal; U251 CNS; UACC-257 melanoma; LOX IMVI melanoma.
Common to all, as to experiment: DTP human tumour cell line panel, 48 h

As usually defined, the TGI is the concentration at which net growth stops. A high value points to less potent growth arrest. Turning to `O=C(c1ccco1)C1CC(c2ccc3ccccc3c2O)=NN1` (configuration not stated), the TGI in the test on A549 NSCLC, with DU-145 prostate, in the test on HS 578T breast, in the test on K-562 leukemia, in the test with MCF7 breast and in the test with NCI-H226 lung was above 100 µM each time. The TGI in the test on PC-3 prostate, in the test on SF-295 CNS, with SK-MEL-2 melanoma, in the test with SN12C renal, in the test on SNB-75 CNS and with TK-10 renal was above 100 µM each time. Moreover, the TGI in the test on U251 CNS and in the test on UACC-257 melanoma was above 100 µM each time.

With `O=C1NCN(c2ccccc2)C12CCN(CCc1ccc3[nH]c(=S)[nH]c3c1)CC2`, the TGI was above 100 µM with A549 NSCLC; above 100 µM in the test with DU-145 prostate; above 100 µM in the test with HS 578T breast; 36.8 µM in the test on LOX IMVI melanoma; 92.8 µM in the test on MCF7 breast; 75.1 µM in the test on PC-3 prostate. In addition, the TGI in the test with SF-295 CNS was above 100 µM; in the test with SK-MEL-2 melanoma it was 41 µM; in the test with SN12C renal it was above 100 µM; with TK-10 renal it was 92.9 µM; with U251 CNS, 98.4 µM; with UACC-257 melanoma, 15.6 µM.

For `CCOc1cc(-c2nc3ccccn3c2/N=C/c2cc([N+](=O)[O-])cc([N+](=O)[O-])c2O)ccc1O`, the TGI with A549 NSCLC, with DU-145 prostate, with HS 578T breast, in the test on K-562 leukemia, in the test on LOX IMVI melanoma and with MCF7 breast was above 100 µM throughout. Besides, the TGI in the test with PC-3 prostate, in the test on SF-295 CNS, with SK-MEL-2 melanoma, with SN12C renal, in the test on SNB-75 CNS and in the test on TK-10 renal was above 100 µM throughout. Also, the TGI in the test on U251 CNS and with UACC-257 melanoma was above 100 µM throughout.

For the molecule `CC1CC(=O)Nc2cc(Cl)ccc2N1C(=O)C1CC1` (configuration not stated), the TGI in the test with A549 NSCLC, with DU-145 prostate, in the test with HS 578T breast, with K-562 leukemia, in the test on LOX IMVI melanoma and in the test with MCF7 breast was above 100 µM each time. For the same molecule, the TGI in the test on NCI-H226 lung, with PC-3 prostate, in the test with SF-295 CNS, in the test with SK-MEL-2 melanoma, in the test with SN12C renal and in the test with TK-10 renal was above 100 µM throughout. Further, the TGI with U251 CNS and in the test on UACC-257 melanoma was above 100 µM in each case.

Consider `c1cc(-c2csc(-c3ccsc3)c2)cs1`, for which the TGI with A549 NSCLC is above 100 µM; with DU-145 prostate, above 100 µM; with HS 578T breast, above 100 µM; with K-562 leukemia it was above 100 µM; with LOX IMVI melanoma, above 100 µM; with MCF7 breast, 48.6 µM. In addition, the concentration for total growth inhibition (TGI) is 83.2 µM in the test on NCI-H226 lung; above 100 µM with PC-3 prostate; above 100 µM with SF-295 CNS; above 100 µM with SN12C renal; above 100 µM in the test with SNB-75 CNS; above 100 µM in the test with TK-10 renal. Also, the TGI in the test on U251 CNS and in the test on UACC-257 melanoma was above 100 µM in each case.

In the case of `CCCCC1Cc2ccccc2-c2n1c1ccccc1[n+]2C` (configuration not stated), the TGI in the test on DU-145 prostate was above 100 µM; in the test with HS 578T breast, 81.5 µM; in the test with K-562 leukemia it was above 100 µM; in the test on LOX IMVI melanoma, 62.3 µM; with MCF7 breast it was above 100 µM; in the test with NCI-H226 lung it was above 100 µM. In addition, the TGI is 43 µM in the test on PC-3 prostate; above 100 µM with SF-295 CNS; 35.7 µM in the test with SK-MEL-2 melanoma; above 100 µM in the test with TK-10 renal; above 100 µM in the test on U251 CNS; 25.2 µM in the test on UACC-257 melanoma.

As for `CCOC(=O)N1CCN(c2c(C)nc(C)[nH]c2=O)CC1`, the TGI in the test on A549 NSCLC, with DU-145 prostate, with HS 578T breast, in the test on K-562 leukemia, in the test on LOX IMVI melanoma and in the test with MCF7 breast was above 100 µM in each case. The TGI in the test on NCI-H226 lung, in the test with PC-3 prostate, with SF-295 CNS, in the test on SN12C renal, in the test on TK-10 renal and with U251 CNS was above 100 µM each time. The same molecule had a TGI with UACC-257 melanoma above 100 µM.

Consider `C=C[C@@H](OCOCC[Si](C)(C)C)[C@@H](CC)OC(CCCOC(=O)C(C)(C)C)OC` (some centres not stated), for which the total growth inhibition concentration (TGI) with A549 NSCLC was above 100 µM; with DU-145 prostate it was above 100 µM; in the test with HS 578T breast, 99.5 µM; in the test on K-562 leukemia it was above 100 µM; with MCF7 breast it was 44.9 µM; in the test on NCI-H226 lung, 81.6 µM. Also, the TGI with PC-3 prostate is above 100 µM; in the test on SF-295 CNS, 50.7 µM; in the test on SK-MEL-2 melanoma it was 52.9 µM; with SN12C renal, above 100 µM; in the test with SNB-75 CNS it was above 100 µM; with TK-10 renal, 78.9 µM. Also, the TGI in the test with U251 CNS is 57.6 µM; in the test with UACC-257 melanoma it was above 100 µM.

As for `O=c1cc(CO)n(CCc2c[nH]c3ccccc23)cc1O`, the TGI is above 100 µM in the test on A549 NSCLC; 83.3 µM with DU-145 prostate; above 100 µM in the test with HS 578T breast; above 100 µM in the test on LOX IMVI melanoma; 59.6 µM with MCF7 breast; above 100 µM in the test with PC-3 prostate. In addition, the TGI in the test with SF-295 CNS, in the test with SK-MEL-2 melanoma, with SN12C renal, with TK-10 renal, in the test on U251 CNS and with UACC-257 melanoma was above 100 µM each time.

For the molecule `O=c1[nH]c(=O)n(C2CC(O)C(CO)O2)cc1NN=NCCc1ccccc1` (configuration not stated), the TGI with A549 NSCLC, in the test on DU-145 prostate, with HS 578T breast, with K-562 leukemia, in the test on LOX IMVI melanoma and in the test with MCF7 breast was above 100 µM each time. Besides, the TGI with NCI-H226 lung, in the test with PC-3 prostate, with SF-295 CNS, with SN12C renal, in the test with SNB-75 CNS and in the test on TK-10 renal was above 100 µM each time. In addition, the TGI with U251 CNS and with UACC-257 melanoma was above 100 µM each time.

Consider `COc1ccc(N)c(C(O)CCNC(C)=O)c1` (configuration not stated), for which the TGI with A549 NSCLC, with DU-145 prostate, in the test on HS 578T breast, in the test with LOX IMVI melanoma, in the test on MCF7 breast and in the test on NCI-H226 lung was above 100 µM each time. The TGI with PC-3 prostate, in the test with SF-295 CNS, with SK-MEL-2 melanoma, in the test with SN12C renal, in the test with SNB-75 CNS and with TK-10 renal was above 100 µM throughout. The concentration for total growth inhibition (TGI) with U251 CNS and with UACC-257 melanoma was above 100 µM throughout.

As to `COc1ccc(OC)c([N+](=O)[O-])c1-c1nc2sccn2c1/C=N/N=C(N)N`, the TGI in the test on A549 NSCLC is above 100 µM; in the test on DU-145 prostate, above 100 µM; in the test on HS 578T breast, 92.6 µM; in the test on K-562 leukemia it was above 100 µM; in the test with LOX IMVI melanoma it was above 100 µM; with MCF7 breast it was 54.2 µM. Besides, the TGI is above 100 µM with NCI-H226 lung; above 100 µM in the test with PC-3 prostate; above 100 µM with SF-295 CNS; 93.2 µM in the test with SK-MEL-2 melanoma; above 100 µM in the test on SN12C renal; above 100 µM with TK-10 renal. In addition, the TGI in the test with U251 CNS and in the test on UACC-257 melanoma was above 100 µM in each case.

For the molecule `COC1(C(C)(C)C)C=C(C(C)(C)C)P(=O)(O)O1` (configuration not stated), the TGI in the test with A549 NSCLC, in the test on DU-145 prostate, with HS 578T breast, with K-562 leukemia, with LOX IMVI melanoma and in the test with MCF7 breast was above 100 µM throughout. The TGI in the test with PC-3 prostate, with SF-295 CNS, with SK-MEL-2 melanoma, in the test on SN12C renal, in the test on SNB-75 CNS and with TK-10 renal was above 100 µM throughout. Also, the TGI in the test on U251 CNS and with UACC-257 melanoma was above 100 µM throughout.

Turning to `C=CCN1C(=O)CC1N(CC=C)S(=O)(=O)c1ccc(C)cc1` (configuration not stated), the TGI with A549 NSCLC, with DU-145 prostate, in the test with HS 578T breast, in the test on K-562 leukemia, in the test on LOX IMVI melanoma and in the test on MCF7 breast was above 100 µM each time. For the same molecule, the TGI with NCI-H226 lung, in the test with PC-3 prostate, in the test with SF-295 CNS, with SN12C renal, with TK-10 renal and in the test on U251 CNS was above 100 µM in each case. The molecule further registered a total growth inhibition concentration (TGI) in the test on UACC-257 melanoma above 100 µM.

Take `CC(CN(C)C)C(=O)c1ccccc1C(=O)O` (configuration not stated): the TGI in the test on A549 NSCLC was above 100 µM; in the test with DU-145 prostate, above 100 µM; with HS 578T breast, 80.6 µM; in the test on K-562 leukemia, above 100 µM; in the test on LOX IMVI melanoma it was above 100 µM; with MCF7 breast, above 100 µM. Moreover, the TGI was 94.5 µM in the test with PC-3 prostate; above 100 µM in the test with SF-295 CNS; 46.9 µM in the test with SK-MEL-2 melanoma; 81.2 µM with SN12C renal; 47.7 µM with TK-10 renal; 38.2 µM in the test with U251 CNS.

Take `COC(=O)c1ccc(Oc2nc3ccccc3nc2-c2cccs2)cc1`: the TGI in the test on A549 NSCLC was 76.9 µM; with DU-145 prostate, above 100 µM; in the test on HS 578T breast it was 63.3 µM; with LOX IMVI melanoma it was above 100 µM; in the test on MCF7 breast, above 100 µM; with PC-3 prostate it was above 100 µM. The TGI in the test on SF-295 CNS was 48 µM; in the test on SK-MEL-2 melanoma, above 100 µM; in the test on SN12C renal it was above 100 µM; in the test on SNB-75 CNS it was 26 µM; with TK-10 renal, 86.8 µM; in the test on UACC-257 melanoma, above 100 µM.
